Like-named read-outs stand apart in the source and are kept apart here.
Legend:
H9C2 cardiomyocytes = assay: Angiotensin II (Ang II)-induced cardiomyocyte hypertrophy model, crystal violet, cell surface area; format: cell-based, rat; conditions: for number of cardiomyocytes (decrease in cell number caused by AngII): 0.5 μM and 1 μM, 40 μM AngII 24 h; for surface area of a single cardiomyocyte, View 1 / surface area of a single cardiomyocyte, View 2 / surface area of a single cardiomyocyte, View 3 / surface area of a single cardiomyocyte, View 4 / surface area of a single cardiomyocyte, View 5 / Myocardial surface area: 40 μM Ang II 24 h; for surface area of a single cardiomyocyte, View 1: field of view 1; for surface area of a single cardiomyocyte, View 2: field of view 2; for surface area of a single cardiomyocyte, View 3: field of view 3; for surface area of a single cardiomyocyte, View 4: field of view 4; for surface area of a single cardiomyocyte, View 5: field of view 5; for Myocardial surface area: mean of 5 views
Protocol: Adjust the H9C2 cardiomyocytes in the logarithmic growth phase to a density of 1.2×10^5 cells/well and inoculate them into six-well plates. […] After culturing for 24 hours, the drug administration groups are added with 40 μM Ang II and the corresponding concentrations of drugs. The Ang II+diltiazem 10 μM group is added with 40 μM Ang II and 10 μM diltiazem. The Ang II model group is added with 40 μM Ang II and an equal volume of DMSO. The blank control group is added with an equal volume of DMSO. Then, continue culturing for 24 hours. Discard the culture medium, wash the cells 3 times with PBS. Add 1 mL of methanol to each well and fix the cells at −20° C. for 20 minutes, and then let them return to room temperature. After discarding the methanol, add 1 mL of 0.5% crystal violet staining solution to each well and stain for 10 minutes. Wash the cells with clean water and take pictures under an inverted microscope. Randomly select fields of view for photographing. Use Image J software to measure the sum of the surface areas of all cardiomyocytes in the field of view and count the number of cells in the field of view at the same time to obtain the surface area of each cardiomyocyte. The surface area of a single cardiomyocyte=the sum of the surface areas of all cardiomyocytes in the field of view/the number of cardiomyocytes in the field of view.

Rat H9C2 cardiomyocytes [1] = assay: cells; conditions: H9c2, 24 h, read-out: Cell survival rate
Protocol: Rat H9C2 cardiomyocytes in the logarithmic growth phase were seeded into 96-well plates at a density of 7×10^4 cells/mL, with 100 μL per well. […] After 24 hours of culture, the drug groups were treated with 800 μM ISO and the corresponding concentrations of drugs. The ISO model group received 800 μM ISO and an equal volume of DMSO, and the blank control group received an equal volume of DMSO. The cells were then cultured for another 24 hours. After removing the supernatant, 100 μL MTT solution (0.5 mg/mL) was added to each well and incubated in the cell culture incubator for 4 hours. After removing the supernatant, 150 μL DMSO was added to each well, mixed by shaking for 10 minutes, and the absorbance was measured at 570 nm using a microplate reader to calculate cell viability. Cell viability (%)=[(As−Ab)/(Ac−Ab)]×100%. As: Experimental well (medium with cells, MTT, ISO); Ac: Control well (medium with cells, MTT, without ISO); Ab: Blank well (medium without cells, MTT, without ISO).

Rat H9C2 cardiomyocytes [2] = assay: cells; conditions: H9c2, 24 h, read-out: Cell viability
Protocol: Rat H9C2 cardiomyocytes in the logarithmic growth phase were seeded at a density of 7×10^4 cells/mL into 96-well plates, with 100 μL per well. […] After 24 hours of culture, the drug treatment groups were respectively added with 50 μM Ang II and the corresponding concentration of the drug. The Ang II model group was added with 50 μM Ang II and an equal volume of DMSO, and the blank control group was added with an equal volume of DMSO. Then, the cells were cultured for another 24 hours. After removing the supernatant, 100 μL of MTT solution (0.5 mg/mL) was added to each well, and the plates were placed in an incubator for 4 hours. After removing the supernatant again, 150 μL of DMSO was added to each well, and the mixture was shaken and mixed evenly for 10 minutes. The absorbance was measured at 570 nm using a microplate reader to calculate the cell viability.
Cell viability (%)=[(As−Ab)/(Ac−Ab)]×100% • As: Experimental well (culture medium containing cells, MTT, Ang II); • Ac: Control well (culture medium containing cells, MTT, without Ang II); • Ab: Blank well (culture medium without cells, MTT, without Ang II).

SMILES | number of cardiomyocytes (decrease in cell number caused by AngII) (H9C2 cardiomyocytes; 0.1 μM) | surface area of a single cardiomyocyte, View 1 (H9C2 cardiomyocytes; 0.1 μM) [μm^2] | surface area of a single cardiomyocyte, View 2 (H9C2 cardiomyocytes; 0.1 μM) [μm^2] | surface area of a single cardiomyocyte, View 3 (H9C2 cardiomyocytes; 0.1 μM) [μm^2] | surface area of a single cardiomyocyte, View 4 (H9C2 cardiomyocytes; 0.1 μM) [μm^2] | surface area of a single cardiomyocyte, View 5 (H9C2 cardiomyocytes; 0.1 μM) [μm^2] | Myocardial surface area (H9C2 cardiomyocytes; 0.1 μM) | surface area of a single cardiomyocyte, View 1 (H9C2 cardiomyocytes; 0.5 μM) [μm^2] | surface area of a single cardiomyocyte, View 2 (H9C2 cardiomyocytes; 0.5 μM) [μm^2] | surface area of a single cardiomyocyte, View 3 (H9C2 cardiomyocytes; 0.5 μM) [μm^2] | surface area of a single cardiomyocyte, View 4 (H9C2 cardiomyocytes; 0.5 μM) [μm^2] | surface area of a single cardiomyocyte, View 5 (H9C2 cardiomyocytes; 0.5 μM) [μm^2] | Myocardial surface area (H9C2 cardiomyocytes; 0.5 μM) | surface area of a single cardiomyocyte, View 1 (H9C2 cardiomyocytes; 1 μM) [μm^2] | surface area of a single cardiomyocyte, View 2 (H9C2 cardiomyocytes; 1 μM) [μm^2] | surface area of a single cardiomyocyte, View 3 (H9C2 cardiomyocytes; 1 μM) [μm^2] | surface area of a single cardiomyocyte, View 4 (H9C2 cardiomyocytes; 1 μM) [μm^2] | surface area of a single cardiomyocyte, View 5 (H9C2 cardiomyocytes; 1 μM) [μm^2] | Myocardial surface area (H9C2 cardiomyocytes; 1 μM) | viability at 0.1 µM (Rat H9C2 cardiomyocytes [1]) [%] | further results
O=c1c(Cc2ccc3c(c2)OCO3)coc2cc(O)cc(O)c12 [Formula I] | significantly improve the decrease in cell number caused by AngII | 362.68 | 351.69 | 344.78 | 338.55 | 410.64 | 361.67 ± 25.76^### μm^2 | 404.40 | 360.65 | 322.34 | 283.2 | 334.96 | 341.11 ± 40.33^### μm^2 | 312.97 | 300.38 | 328.43 | 331.13 | 303.72 | 315.33 ± 12.53^### μm^2 | 81.3 | viability at 0.3 µM (Rat H9C2 cardiomyocytes [1]): 76.8%; viability at 1 µM (Rat H9C2 cardiomyocytes [1]): 74%; viability at 3 µM (Rat H9C2 cardiomyocytes [1]): 76.6%; viability at 5 µM (Rat H9C2 cardiomyocytes [1]): 66.7%; viability at 10 µM (Rat H9C2 cardiomyocytes [1]): 69.4%; viability at 0.1 µM (Rat H9C2 cardiomyocytes [2]): 75.1%; viability at 0.3 µM (Rat H9C2 cardiomyocytes [2]): 72.5%; viability at 1 µM (Rat H9C2 cardiomyocytes [2]): 73.5%; viability at 3 µM (Rat H9C2 cardiomyocytes [2]): 75.9%; viability at 10 µM (Rat H9C2 cardiomyocytes [2]): 76.4%
Cc1c(O)cc(O)c2c(=O)c(Cc3ccc4c(c3)OCO4)coc12 [Formula II, 3-(benzo[d][1,3]dioxol-5-ylmethyl)-5,7-dihydroxy-8-methyl-4H-chromen-4-one] | significantly improve the decrease in cell number caused by AngII | 346.49 | 347.86 | 326.61 | 381.47 | 353.63 | 351.21 ± 17.66^### μm^2 | 420.10 | 338.84 | 355 | 334.83 | 342.18 | 358.19 ± 31.68^### μm^2 | 365.93 | 372.44 | 366.76 | 392.9 | 373.9 | 374.39 ± 9.76^### μm^2 | 79.8 | viability at 0.3 µM (Rat H9C2 cardiomyocytes [1]): 79.8%; viability at 1 µM (Rat H9C2 cardiomyocytes [1]): 74.8%; viability at 3 µM (Rat H9C2 cardiomyocytes [1]): 79.6%; viability at 5 µM (Rat H9C2 cardiomyocytes [1]): 64.9%; viability at 10 µM (Rat H9C2 cardiomyocytes [1]): 66.7%; viability at 0.1 µM (Rat H9C2 cardiomyocytes [2]): 81.4%; viability at 0.3 µM (Rat H9C2 cardiomyocytes [2]): 73.5%; viability at 1 µM (Rat H9C2 cardiomyocytes [2]): 77.6%; viability at 3 µM (Rat H9C2 cardiomyocytes [2]): 73%; viability at 10 µM (Rat H9C2 cardiomyocytes [2]): 75.6%

— patent publication US20260285849A1, “METHYLOPHIOPOGONONE A DERIVATIVE, AND PREPARATION AND USE THEREOF” (INSTITUTE OF MATERIA MEDICA, CHINESE ACADEMY OF MEDICAL …, priority 2022, published 2026)
